Results from PubChem BioAssay AID1996.
Values after ≈ are worked out from the molar mass of the structure shown.

Settings: buffer; pH 7.4; 200.0 µM

Point of comparison: `C=CCN(CC=C)S(=O)(=O)c1ccc(NC(=S)NC(=O)C2CC2)cc1`, solubility kinetic 7.8 µg/mL (≈ 20.6 µM). Against it:
- Cc1ccccc1CC(=O)Nc1ccon1 — 3.9-fold higher, 30.3 µg/mL (≈ 140 µM)
- Cc1ccc(S(=O)(=O)NCCC(=O)NCCc2ccc(S(N)(=O)=O)cc2)cc1C — higher, > 65.9 µg/mL
- CCOc1ccc(NC(=S)Nc2cccnc2)cc1 — 4.3-fold higher, 33.3 µg/mL (≈ 122 µM)
- COc1ccc(OC)c(/C=C2\NC(=O)NC2=O)c1 — within 1.5-fold, 9.5 µg/mL (≈ 38.3 µM)
- CC(C)NC(=O)NC(=O)CSc1ncccn1 — higher, > 38.1 µg/mL
- O=C(Nc1ccccc1)Nc1ccc(Nc2ccccc2)cc1 — lower, < 0.2 µg/mL
- CCCNC(=O)c1ccc(COc2cccc3ccccc23)o1 — 2-fold higher, 15.8 µg/mL (≈ 51.1 µM)
- O=C(NCc1ccccc1)c1ccc(NC(=O)C2CCCO2)cc1 (stereo not given) — higher, > 48.7 µg/mL
- O=C(Nc1ccon1)c1sc2cc(Cl)ccc2c1Cl — lower, < 0.3 µg/mL
- O=C(/C=C/c1ccc(Br)o1)Nc1nccs1 — 1.8-fold lower, 4.3 µg/mL (≈ 14.4 µM)
- COc1ccc(NC(=O)COC(=O)C2CC2)c(OC)c1 — higher, > 41.9 µg/mL
- Cc1nccn1CCOc1ccccc1Cl — 4.3-fold higher, 33.2 µg/mL (≈ 140 µM)
- CC(=O)Nc1ccccc1C(=O)C(=O)Nc1ccc(F)c(Cl)c1 — 3.2-fold lower, 2.4 µg/mL (≈ 7.17 µM)
- C=CCNc1nc(C(=O)OCC(=O)c2ccccc2)cs1 — 1.7-fold lower, 4.5 µg/mL (≈ 14.9 µM)
- COc1ccc(CCNC2CCC(c3ccccc3)CC2)cc1 (stereo not given) — higher, > 46.4 µg/mL
- O=C(O)C1CCC(N2C(=O)C3C4CCC(C4)C3C2=O)CC1 (stereo not given) — higher, > 43.7 µg/mL
- CN(C)S(=O)(=O)c1cccc(NC(=S)NCc2ccco2)c1 — higher, > 50.9 µg/mL
- CC(=O)c1cccc(NC(=O)CCNC(=O)c2cccc(C)c2)c1 — 2.6-fold higher, 20.5 µg/mL (≈ 63.2 µM)
- COc1ccccc1N1CC(C(=O)Nc2ccc(S(=O)(=O)N3CCCC3)cc2)CC1=O (stereo not given) — higher, > 66.5 µg/mL
- Cc1ccc(CNC(=O)CSc2nc3ccccc3[nH]2)cc1 — 4-fold higher, 31.1 µg/mL (≈ 99.9 µM)
- COc1ccc2[nH]c(=O)c(CN(C)C(=O)c3cccs3)cc2c1 — 1.6-fold higher, 12.4 µg/mL (≈ 37.8 µM)
- CC(=O)c1cccc(NC(=S)N2CCCC2)c1 — higher, > 37.3 µg/mL
- NC(=O)c1ccc(NC(=O)COC(=O)CC2CC3CCC2C3)cc1 (stereo not given) — 1.7-fold higher, 13 µg/mL (≈ 39.3 µM)
- CC(=O)c1sc(-c2ccc(F)cc2)cc1NS(=O)(=O)c1ccccc1 — 8.7-fold lower, 0.9 µg/mL (≈ 2.4 µM)
- CCOC(=O)c1sc(=NC(=O)c2ccc(F)cc2)n(C)c1C — 5.6-fold lower, 1.4 µg/mL (≈ 4.34 µM)
- COc1cc2c(cc1/C=C/[N+](=O)[O-])OCO2 — within 1.5-fold, 6.5 µg/mL (≈ 29.1 µM)
- NCC(=O)CCC(=O)O — 2.4-fold higher, 18.6 µg/mL (≈ 142 µM)
- COc1ccc(C(=O)C(C)OC(=O)CN2C(=O)c3ccccc3C2=O)cc1 (stereo not given) — higher, > 55.1 µg/mL
- COc1ccc(Cl)cc1NC(=S)NC1CCCC1 — 2.6-fold lower, 3 µg/mL (≈ 10.5 µM)
- O=C(Nc1ccc(F)cc1)c1csc(Cc2ccccc2)n1 — 6-fold lower, 1.3 µg/mL (≈ 4.16 µM)
- CCN(CC)CCCN=C(C)C1=C(O)c2ccccc2C1=O — higher, > 45.1 µg/mL
- Cc1ccc(S(=O)(=O)Nc2csc(C)c2C(=O)O)cc1 — higher, > 46.7 µg/mL
- O=C(O)CC(CC(=O)N1CCN(C(=O)c2ccco2)CC1)c1ccccc1 (stereo not given) — higher, > 55.6 µg/mL
- CN1CN(C)c2ccc([N+](=O)[O-])c3cccc1c23 — 3.7-fold lower, 2.1 µg/mL (≈ 8.63 µM)
- CN(C(=O)c1cc2ccccc2cc1O)C1CCCCC1 — 5.2-fold higher, 40.6 µg/mL (≈ 143 µM)
- Nc1c(Cl)nc(-c2ccccc2)nc1Cl — within 1.5-fold, 7.9 µg/mL (≈ 32.9 µM)
- COc1ccccc1NC(=O)c1sc(Cl)nc1C — 4.7-fold higher, 36.8 µg/mL (≈ 130 µM)
- Cc1occc1C(=O)Nc1cccc(Cl)c1Cl — 1.7-fold lower, 4.5 µg/mL (≈ 16.7 µM)
- CCN1CCN(C(=O)C(Cc2ccccc2)NC(=O)c2ccc(Cl)c(S(=O)(=O)N(C)C)c2)CC1 (stereo not given) — higher, > 76.1 µg/mL
- CCCN(CC(=O)Nc1ccccc1OC)C(=O)c1nc2nc(C)ccn2n1 — higher, > 57.4 µg/mL
- Cc1nc(C)c(-c2csc(Nc3ccc(O)cc3C)n2)s1 — lower, < 0.2 µg/mL
- COc1ccc2c(CC(=O)OCc3nc4ccsc4c(=O)[nH]3)coc2c1 — 4.1-fold higher, 32.2 µg/mL (≈ 86.9 µM)
- O=C(NCc1ccccn1)C1CCCCC1 — higher, > 32.7 µg/mL
- Cc1cc(NC(=O)c2cccs2)no1 — higher, > 31.2 µg/mL
- CCN(c1ccccc1)S(=O)(=O)c1ccc(C(=O)N2CCN(c3ccccc3)CC2)cc1 — within 1.5-fold, 7 µg/mL (≈ 15.6 µM)
- Cc1ccccc1Nc1nnc(SCC(=O)NCC2CCCO2)s1 (stereo not given) — higher, > 54.7 µg/mL
- CC1CCC(NC(=O)CCNS(=O)(=O)c2ccccc2)CC1 (stereo not given) — higher, > 48.7 µg/mL
- Cc1ccc(S(=O)(=O)NC2CC(C)(C)NC(C)(C)C2)c(C)c1C — 5.5-fold higher, 42.6 µg/mL (≈ 126 µM)
- O=c1[nH]cnc(O)c1C(c1cccc([N+](=O)[O-])c1)c1c(O)nc[nH]c1=O — higher, > 53.6 µg/mL
- COc1ccc2[nH]c(C(=O)N3CCc4ccccc4C3)c(C)c2c1 — 3-fold lower, 2.6 µg/mL (≈ 8.12 µM)
- CCc1ccc2[nH]c(C(=O)N(C)c3ccc(F)cc3F)cc2c1 — 4.6-fold lower, 1.7 µg/mL (≈ 5.41 µM)
- COCCc1nnc(NC(=O)C(C)C)s1 — higher, > 34.4 µg/mL
- COc1ccccc1C1NC(=O)NC(C)=C1C(=O)OC1CCC(C)CC1 (stereo not given) — lower, < 0.4 µg/mL
- Cc1cc(=O)c(C(=O)O)nn1-c1ccccc1Cl — higher, > 39.7 µg/mL
- Cc1ccccc1-n1c(=S)[nH]c2nc3c(cc2c1=O)COC(C)(C)C3 — 3.9-fold higher, 30.7 µg/mL (≈ 86.9 µM)
- Cc1ccnc(NC(=O)c2cccc3ccccc23)c1 — within 1.5-fold, 6.1 µg/mL (≈ 23.3 µM)
- Cc1c(C)n(CC(O)CN2CCN(C)CC2)c2ccccc12 (stereo not given) — 5.6-fold higher, 43.3 µg/mL (≈ 144 µM)
- Cc1ccc(S(=O)(=O)NC(=O)c2cccc(N(C)C)c2)cc1 — higher, > 47.8 µg/mL
- CCN(CC(=O)NCc1ccc(Cl)cc1)C(=O)c1sccc1C — higher, > 52.6 µg/mL
